The assay has as its system BLA neurons (GIRK currents). Nature of the assay: whole-cell patch-clamp in acute brain slices, basolateral amygdala (BLA) neurons. As to conditions: for current response of BLA neurons (in words): −50 mV. Format: cell-based, rat. On the procedure:
Electrophysiological recordings from brain slices containing basolateral amygdala (BLA) neurons: Electrophysiology was performed using 150-200 g male Sprague-Dawley rats (Harlan/Envigo, Indianapolis, IN). Rats were group housed in plastic cages in standard housing conditions with ad libitum access to food and water with 12:12 light/dark cycle (lights on at 07:00 h). All experiments were conducted in accordance with the Guide for the Care and Use of Laboratory Animals (Institute for Laboratory Animal Research, The National Academies Press) and the guidelines of the IUPUI Institutional Animal Care and Use Committee. Rats were anesthetized with isoflurane and immediately decapitated. Brains were then rapidly removed, placed in ice-cold oxygenated artificial cerebrospinal fluid solution (ACSF) and coronal slices ([…]) were prepared containing the amygdala. Slices were incubated at 31° C. for 30 min and then returned to room temperature until recording. [ACSF solution in mM: 130 NaCl; 3.5 KCl; 1.1 KH2PO4; 1.3 MgCl2; 2.5 CaCl2; 30 NaHCO3; 10 glucose, 315 mOsm, 7.4 pH]. Cells were identified for recording at 40× magnification using Scientifica Slicescope microscope under DIC illumination (Scientifica, Uckfield, UK). ACSF was warmed to 30° C. and perfused at a rate of 2-3 ml/min during recordings. Compounds were added to ACSF at desired concentrations. Whole-cell patch-clamp recordings were obtained using standard techniques. Borosilicate glass electrodes (WPI, Sarasota, FL) (resistance 3-6 MΩ) were prepared and used for both recording and baclofen application. [Recording internal solution in mM: 140 K-gluconate; 2 KCl; 3 MgCl2; 10 HEPES; 5 Phosphocreatinine; 2 K-ATP; 0.2 Na-GTP, 290 mOsm, 7.4 pH]. In voltage-clamp mode, the cell was adjusted to −50 mV at the beginning of all experiments and 5 min stable baseline was established before treatment. Picospritzer II (Parker Hannifin, Hollis, NH) was utilized for local application of 100 μM GABA-B agonist baclofen in ACSF to activate GIRKs. Baseline and baclofen-induced currents were averaged from three responses per cell and analyzed using ClampFit software (Molecular Devices, San Jose, CA). […] Several control cells were subjected to baclofen at 2 min intervals for 30 min and consistent responses were observed, thus ruling out time-dependent effects.
The inventors employed whole-cell patch-clamp recording in acute brain slices to examine the effect of GAT1508. The inventors utilized brain slices that included the basolateral amygdala (BLA), a limbic structure that has been extensively described to coordinate the acquisition and expression of fear memories. […] Next, the inventors examined the response of BLA neurons to baclofen, a GABAB-receptor agonist that induces GIRK-mediated potassium currents. […]
(In patch-clamp work, channel activity is measured electrically.)

With `Cc1cc(NC(=O)Nc2ccc(Br)s2)n(-c2ccccc2)n1` [GAT1508, 1-(5-bromothiophen-2-yl)-3-(3-methyl-1-phenyl-1H-pyrazol-5-yl)urea], the “current response of BLA neurons (in words)” value is listed as “did not produce responses” (10 μM perfusion) and “produced significant outward current” (30 μM perfusion). Further, where the note is “10 min perfusion of 10 μM, 100 μM baclofen puff”, the “effect on baclofen-induced current in BLA neurons (in words)” value is reported as “significantly potentiated baclofen-induced current”.

The values are drawn from patent US12351574B2, “Selective ligands for modulation of GIRK channels” (Northeastern University, priority 2018, dated 2025).
